According to patent publication US10131702B2, “Glucagon-GLP-1-GIP triple agonist compounds” (priority 2013, dated 2018):
Where two headings read alike, the source gives them in different places. Numbered stars: 1 amine (or outer) side, 2 acyl side, 3 side chain; on linkers, the order of the positions; unused ones are H or OH. Square brackets hold non-standard residues; d marks the D form. Side chains are listed from the residue outwards. Peptide text beside a SMILES is read from it. * marks the point of attachment. γGlu = O=C(O)[C@H](CCC(=O)[*:2])N[*:1]; Stearoyl = CCCCCCCCCCCCCCCCCC(=O)*; AEEA = NCCOCCOCC(=O)O; Aib = CC(C)(N)C(=O)O

T1: human GIP R (Homo sapiens, UniProt P48546)
T1 construct: expressed in transfected cells
T1 sequence (P48546 22-466): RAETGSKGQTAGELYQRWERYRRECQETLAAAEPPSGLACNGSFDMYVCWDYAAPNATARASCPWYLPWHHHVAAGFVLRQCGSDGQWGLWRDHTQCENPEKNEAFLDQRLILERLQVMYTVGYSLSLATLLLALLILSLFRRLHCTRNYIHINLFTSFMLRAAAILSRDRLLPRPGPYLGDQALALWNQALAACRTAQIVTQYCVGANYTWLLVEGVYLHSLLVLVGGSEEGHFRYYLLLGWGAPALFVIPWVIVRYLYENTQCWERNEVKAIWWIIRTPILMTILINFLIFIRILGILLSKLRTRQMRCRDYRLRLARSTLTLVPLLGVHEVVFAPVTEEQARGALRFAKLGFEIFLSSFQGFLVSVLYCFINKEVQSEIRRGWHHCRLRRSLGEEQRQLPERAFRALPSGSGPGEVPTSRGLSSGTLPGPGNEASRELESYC

T2: human GIP receptor (human, UniProt P48546 22-466)
T2 sequence: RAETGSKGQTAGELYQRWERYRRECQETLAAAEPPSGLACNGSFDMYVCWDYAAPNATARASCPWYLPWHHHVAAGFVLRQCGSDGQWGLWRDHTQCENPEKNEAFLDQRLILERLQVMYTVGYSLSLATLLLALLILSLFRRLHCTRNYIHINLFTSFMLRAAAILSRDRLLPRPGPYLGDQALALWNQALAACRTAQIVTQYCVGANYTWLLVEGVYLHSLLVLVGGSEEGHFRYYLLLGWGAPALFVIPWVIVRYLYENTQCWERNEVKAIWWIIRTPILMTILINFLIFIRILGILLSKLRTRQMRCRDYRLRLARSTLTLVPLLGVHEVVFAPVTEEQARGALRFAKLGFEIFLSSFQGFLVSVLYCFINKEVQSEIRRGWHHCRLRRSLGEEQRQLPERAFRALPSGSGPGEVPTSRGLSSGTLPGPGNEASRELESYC

B1: Compound 46 (peptide)
peptide: H-Y[Aib]QGTFTSDYSIALEKK([Peg3-Peg3-γGlu-Stearoyl])AQRAFVEWLLAQK-NH2

What was measured:
human GLP-1 R = biological target: T3, human GLP-1 R (Homo sapiens, UniProt P43220); test: cAMP induction in HEK293 cells expressing human GLP-1 R (AlphaScreen cAMP kit); format: cell-based; conditions: average EC50, cAMP, HEK293 cells expressing human GLP-1 R, read-out: GLP1 R (EC50 in nM)
T3 construct: expressed in transfected cells
Procedure: (§1) Briefly, HEK293 cells expressing the human GIP R, GLP-1 R or GCG R (stable cell lines generated through transfection of the cDNA for human GIP R, GLP-1 R or GCG R and selection of stable clones) were seeded at 30,000 cells/well in 96-well microtiter plates coated with 0.01% poly-L-lysine, and grown for 1 day in culture in 200 μl growth medium (DMEM, 10% FCS, Penicillin (100 IU/ml), Streptomycin (100 μg/ml)). On the day of analysis, growth medium was removed and the cells were washed once with 150 μl Tyrode's buffer (Tyrode's Salts (9.6 g/l), 10 mM HEPES, pH 7.4). […] The Assay buffer was removed and cells are lysed in 80 μl Lysis buffer (0.1% w/v BSA, 5 mM HEPES, 0.3% v/v Tween-20) per well. From each well 10 μl of lysed cells were transferred to a 384-well plate and mixed with 15 μl bead-mix (1 Unit/15 μl anti-cAMP Acceptor Beads, 1 Unit/15 μl Donor Beads, and 1 Unit/15 μl Biotinylated cAMP in Assay Buffer). The plates were mixed and incubated in the dark for an hour at room temperature before measuring using an Envision™ plate reader (Perkin-Elmer).
(§2) The resulting cAMP curves were plotted as absolute cAMP concentrations (nM) over log (test compound concentration) and analyzed using the curve fitting program XLfit.
(§3) Parameters calculated to describe both the potency as well as the agonistic activity of each test compound on the receptors were:
(§4) EC50, a concentration resulting in a half-maximal elevation of cAMP levels, reflecting the potency of the test compound.

human GIP R = biological target: T1, human GIP R; test: cAMP induction in HEK293 cells expressing human GIP R (AlphaScreen cAMP kit); format: cell-based; conditions: GIP R (EC50 in nM)
human GCG R = biological target: T4, human GCG R (Homo sapiens, UniProt P47871); test: cAMP induction in HEK293 cells expressing human GCG R (AlphaScreen cAMP kit); format: cell-based
T4 construct: expressed in transfected cells
Procedure: as §1, §2, §3, §4

human GIP receptor = biological target: T2, human GIP receptor; test: cell-based or functional assay
human glucagon receptor = human glucagon receptor (human, UniProt P47871 26-477); test: cell-based or functional assay
[1] = biological target: human glucagon-like peptide 1 receptor (human, UniProt P43220 24-463); test: cell-based or functional assay
[2] = Table 2b (most comprehensive data)
[3] = Table 2b (most comprehensive data), average EC50, cAMP

T4 sequence (P47871 26-477): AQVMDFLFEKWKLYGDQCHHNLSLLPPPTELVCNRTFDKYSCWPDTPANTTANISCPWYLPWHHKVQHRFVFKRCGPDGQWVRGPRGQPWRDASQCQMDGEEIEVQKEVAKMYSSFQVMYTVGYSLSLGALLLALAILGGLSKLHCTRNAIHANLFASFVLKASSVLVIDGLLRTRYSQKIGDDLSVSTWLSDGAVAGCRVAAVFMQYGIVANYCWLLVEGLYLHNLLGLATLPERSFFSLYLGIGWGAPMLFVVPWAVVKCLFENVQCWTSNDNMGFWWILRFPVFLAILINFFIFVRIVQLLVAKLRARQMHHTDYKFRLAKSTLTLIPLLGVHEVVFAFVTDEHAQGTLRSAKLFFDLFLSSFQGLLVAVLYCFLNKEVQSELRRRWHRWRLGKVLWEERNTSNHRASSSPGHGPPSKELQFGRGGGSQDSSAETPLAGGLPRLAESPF
T3 sequence (P43220 24-463): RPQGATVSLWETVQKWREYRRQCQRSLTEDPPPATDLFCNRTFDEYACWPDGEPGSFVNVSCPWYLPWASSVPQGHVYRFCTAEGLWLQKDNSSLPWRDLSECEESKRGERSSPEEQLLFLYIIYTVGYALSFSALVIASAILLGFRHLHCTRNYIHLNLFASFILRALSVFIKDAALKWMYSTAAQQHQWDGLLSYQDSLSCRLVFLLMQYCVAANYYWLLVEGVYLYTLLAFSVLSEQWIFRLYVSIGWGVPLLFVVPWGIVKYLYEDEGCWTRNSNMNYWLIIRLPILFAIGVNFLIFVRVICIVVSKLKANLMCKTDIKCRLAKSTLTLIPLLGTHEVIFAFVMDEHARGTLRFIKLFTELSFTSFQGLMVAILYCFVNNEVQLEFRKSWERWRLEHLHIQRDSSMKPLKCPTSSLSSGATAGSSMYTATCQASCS
Sequence of human glucagon receptor (P47871 26-477): as the sequence (P47871 26-477) above

Molecule	EC50 (human GLP-1 R; Table 2) [nM]	EC50 (human GIP R; Table 2, average EC50, cAMP) [nM]	EC50 (human GCG R) [nM]	EC50 (human GLP-1 R; [2]) [nM]	EC50 (human GIP R; [3]) [nM]	EC50 (cAMP induction) (human GIP receptor) [nM]	EC50 (cAMP induction) (human glucagon receptor) [nM]	EC50 (cAMP induction) [1] [nM]
CC(C)C[C@H](NC(=O)[C@H](C)NC(=O)[C@H](CCCCN)NC(=O)[C@H](CO)NC(=O)[C@H](Cc1ccc(O)cc1)NC(=O)[C@H](CC(=O)O)NC(=O)[C@H](CO)NC(=O)[C@@H](NC(=O)[C@H](Cc1ccccc1)NC(=O)[C@@H](NC(=O)CNC(=O)[C@H](CCC(N)=O)NC(=O)C(C)(C)NC(=O)[C@@H](N)Cc1ccc(O)cc1)[C@@H](C)O)[C@@H](C)O)C(=O)N[C@@H](CC(=O)O)C(=O)N[C@@H](CO)C(=O)N[C@@H](CCCCN)C(=O)N[C@@H](C)C(=O)N[C@@H](C)C(=O)N[C@@H](Cc1c[nH]cn1)C(=O)N[C@@H](CC(=O)O)C(=O)N[C@@H](Cc1ccccc1)C(=O)N[C@H](C(=O)N[C@@H](CCC(=O)O)C(=O)N[C@@H](Cc1c[nH]c2ccccc12)C(=O)N[C@@H](CC(C)C)C(=O)N[C@@H](CC(C)C)C(=O)N[C@@H](CO)C(=O)N[C@@H](C)C(N)=O)C(C)C [Compound 7] (HELM PEPTIDE1{Y.[Aib].Q.G.T.F.T.S.D.Y.S.K.A.L.D.S.K.A.A.H.D.F.V.E.W.L.L.S.A.[am]}$$$$V2.0)	0.031	0.42	0.086	–	–	–	–	–
CC[C@H](C)[C@H](NC(=O)[C@H](CO)NC(=O)[C@H](Cc1ccc(O)cc1)NC(=O)[C@H](CC(=O)O)NC(=O)[C@H](CO)NC(=O)[C@@H](NC(=O)[C@H](Cc1ccccc1)NC(=O)[C@@H](NC(=O)CNC(=O)[C@H](CCC(N)=O)NC(=O)C(C)(C)NC(=O)[C@@H](N)Cc1ccc(O)cc1)[C@@H](C)O)[C@@H](C)O)C(=O)N[C@@H](Cc1ccc(O)cc1)C(=O)N[C@@H](CC(C)C)C(=O)N[C@@H](CC(=O)O)C(=O)N[C@@H](CO)C(=O)N[C@@H](CCCCN)C(=O)N[C@@H](C)C(=O)N[C@@H](C)C(=O)N[C@@H](CCCCN)C(=O)N[C@@H](CC(=O)O)C(=O)N[C@@H](Cc1ccccc1)C(=O)N[C@H](C(=O)N[C@@H](CCC(=O)O)C(=O)N[C@@H](Cc1c[nH]c2ccccc12)C(=O)N[C@@H](CC(C)C)C(=O)N[C@@H](CC(C)C)C(=O)N[C@@H](CO)C(=O)N[C@@H](C)C(N)=O)C(C)C [Compound 10] (HELM PEPTIDE1{Y.[Aib].Q.G.T.F.T.S.D.Y.S.I.Y.L.D.S.K.A.A.K.D.F.V.E.W.L.L.S.A.[am]}$$$$V2.0)	0.012	0.24	0.1	0.1	0.012	–	–	–
CC(C)C[C@H](NC(=O)[C@H](CC(C)C)NC(=O)[C@H](Cc1c[nH]c2ccccc12)NC(=O)[C@H](CCC(=O)O)NC(=O)[C@@H](NC(=O)[C@H](Cc1ccccc1)NC(=O)[C@H](CC(=O)O)NC(=O)[C@H](Cc1c[nH]cn1)NC(=O)[C@H](C)NC(=O)[C@H](C)NC(=O)[C@H](CCCCN)NC(=O)[C@H](CO)NC(=O)[C@H](CCC(=O)O)NC(=O)[C@H](CC(C)C)NC(=O)[C@H](Cc1ccc(O)cc1)NC(=O)[C@H](CCCCN)NC(=O)[C@H](CO)NC(=O)[C@H](Cc1ccc(O)cc1)NC(=O)[C@H](CC(=O)O)NC(=O)[C@H](CO)NC(=O)[C@@H](NC(=O)[C@H](Cc1ccccc1)NC(=O)[C@@H](NC(=O)CNC(=O)[C@H](CCC(N)=O)NC(=O)C(C)(C)NC(=O)[C@@H](N)Cc1ccc(O)cc1)[C@@H](C)O)[C@@H](C)O)C(C)C)C(=O)N[C@@H](CO)C(=O)N[C@@H](C)C(N)=O [Compound 8] (HELM PEPTIDE1{Y.[Aib].Q.G.T.F.T.S.D.Y.S.K.Y.L.E.S.K.A.A.H.D.F.V.E.W.L.L.S.A.[am]}$$$$V2.0)	0.015	0.2	0.042	–	0.015	–	–	–
CCCCCCCCCCCCCCCCCC(=O)N[C@@H](CCC(=O)NCCOCCOCC(=O)NCCOCCOCC(=O)NCCCC[C@H](NC(=O)[C@H](CCCCN)NC(=O)[C@H](CCC(=O)O)NC(=O)[C@H](CC(C)C)NC(=O)[C@H](C)NC(=O)[C@@H](NC(=O)[C@H](CO)NC(=O)[C@H](Cc1ccc(O)cc1)NC(=O)[C@H](CC(=O)O)NC(=O)[C@H](CO)NC(=O)[C@@H](NC(=O)[C@H](Cc1ccccc1)NC(=O)[C@@H](NC(=O)CNC(=O)[C@H](CCC(N)=O)NC(=O)C(C)(C)NC(=O)[C@@H](N)Cc1ccc(O)cc1)[C@@H](C)O)[C@@H](C)O)[C@@H](C)CC)C(=O)N[C@@H](C)C(=O)N[C@@H](CCC(N)=O)C(=O)N[C@@H](CCCNC(=N)N)C(=O)N[C@@H](C)C(=O)N[C@@H](Cc1ccccc1)C(=O)N[C@H](C(=O)N[C@@H](CCC(=O)O)C(=O)N[C@@H](Cc1c[nH]c2ccccc12)C(=O)N[C@@H](CC(C)C)C(=O)N[C@@H](CC(C)C)C(=O)N[C@@H](C)C(=O)N[C@@H](CCC(N)=O)C(=O)N[C@@H](CCCCN)C(N)=O)C(C)C)C(=O)O [Compound 46] (H-Y[Aib]QGTFTSDYSIALEKK([AEEA-AEEA-γGlu-Stearoyl])AQRAFVEWLLAQK-NH2)	–	–	0.13	0.16	0.011	–	–	–
CCCCCCCCCCCCCCCC(=O)N[C@@H](CCC(=O)NCCCC[C@H](NC(=O)[C@H](CCC(=O)O)NC(=O)[C@H](CC(C)C)NC(=O)[C@H](Cc1ccc(O)cc1)NC(=O)[C@@H](NC(=O)[C@H](CO)NC(=O)[C@H](Cc1ccc(O)cc1)NC(=O)[C@H](CC(=O)O)NC(=O)[C@H](CO)NC(=O)[C@@H](NC(=O)[C@H](Cc1ccccc1)NC(=O)[C@@H](NC(=O)CNC(=O)[C@H](CCC(N)=O)NC(=O)C(C)(C)NC(=O)[C@@H](N)Cc1ccc(O)cc1)[C@@H](C)O)[C@@H](C)O)[C@@H](C)CC)C(=O)N[C@@H](CCCCN)C(=O)N[C@@H](C)C(=O)N[C@@H](C)C(=O)N[C@@H](CCCCN)C(=O)N[C@@H](CCC(=O)O)C(=O)N[C@@H](Cc1ccccc1)C(=O)N[C@H](C(=O)N[C@@H](CCC(=O)O)C(=O)N[C@@H](Cc1c[nH]c2ccccc12)C(=O)N[C@@H](CC(C)C)C(=O)N[C@@H](CC(C)C)C(=O)N[C@@H](CO)C(=O)N[C@@H](C)C(N)=O)C(C)C)C(=O)O [Compound 24] (HELM PEPTIDE1{Y.[Aib].Q.G.T.F.T.S.D.Y.S.I.Y.L.E.K.K.A.A.K.E.F.V.E.W.L.L.S.A.[am]}|PEPTIDE2{[CCCCCCCCCCCCCCCC(=O)[*:2]].[gGlu]}$PEPTIDE1,PEPTIDE2,16:R3-2:R2$$$V2.0)	0.091	0.1	0.28	0.091	0.1	–	–	–
CC[C@H](C)[C@H](NC(=O)[C@H](CO)NC(=O)[C@H](Cc1ccc(O)cc1)NC(=O)[C@H](CC(=O)O)NC(=O)[C@H](CO)NC(=O)[C@@H](NC(=O)[C@H](Cc1ccccc1)NC(=O)[C@@H](NC(=O)CNC(=O)[C@H](CCC(N)=O)NC(=O)C(C)(C)NC(=O)[C@@H](N)Cc1ccc(O)cc1)[C@@H](C)O)[C@@H](C)O)C(=O)N[C@@H](Cc1ccc(O)cc1)C(=O)N[C@@H](CC(C)C)C(=O)N[C@@H](CCC(=O)O)C(=O)N[C@@H](CCCCN)C(=O)N[C@@H](CCCCN)C(=O)N[C@@H](C)C(=O)N[C@@H](C)C(=O)N[C@@H](CCCCN)C(=O)N[C@@H](CCC(=O)O)C(=O)N[C@@H](Cc1ccccc1)C(=O)N[C@H](C(=O)N[C@@H](CCC(=O)O)C(=O)N[C@@H](Cc1c[nH]c2ccccc12)C(=O)N[C@@H](CC(C)C)C(=O)N[C@@H](CC(C)C)C(=O)N[C@@H](CO)C(=O)N[C@@H](C)C(N)=O)C(C)C [Compound 20] (HELM PEPTIDE1{Y.[Aib].Q.G.T.F.T.S.D.Y.S.I.Y.L.E.K.K.A.A.K.E.F.V.E.W.L.L.S.A.[am]}$$$$V2.0)	0.0094	0.047	0.057	–	0.009	–	–	–
CC[C@H](C)[C@H](NC(=O)[C@H](CO)NC(=O)[C@H](Cc1ccc(O)cc1)NC(=O)[C@H](CC(=O)O)NC(=O)[C@H](CO)NC(=O)[C@@H](NC(=O)[C@H](Cc1ccccc1)NC(=O)[C@@H](NC(=O)CNC(=O)[C@H](CCC(N)=O)NC(=O)C(C)(C)NC(=O)[C@@H](N)Cc1ccc(O)cc1)[C@@H](C)O)[C@@H](C)O)C(=O)N[C@@H](Cc1ccc(O)cc1)C(=O)N[C@@H](CC(C)C)C(=O)N[C@@H](CC(=O)O)C(=O)N[C@@H](CCCCN)C(=O)N[C@@H](CCCCN)C(=O)N[C@@H](C)C(=O)N[C@@H](C)C(=O)N[C@@H](Cc1c[nH]cn1)C(=O)N[C@@H](CC(=O)O)C(=O)N[C@@H](Cc1ccccc1)C(=O)N[C@H](C(=O)N[C@@H](CCC(=O)O)C(=O)N[C@@H](Cc1c[nH]c2ccccc12)C(=O)N[C@@H](CC(C)C)C(=O)N[C@@H](CC(C)C)C(=O)N[C@@H](CO)C(=O)N[C@@H](C)C(N)=O)C(C)C [Compound 19] (HELM PEPTIDE1{Y.[Aib].Q.G.T.F.T.S.D.Y.S.I.Y.L.D.K.K.A.A.H.D.F.V.E.W.L.L.S.A.[am]}$$$$V2.0)	0.013	0.032	0.024	0.024	0.013	–	–	–
B1	–	–	–	–	–	0.011	0.13	0.16
